Assay results published in publication PMC9497135, “Structure-Based Study to Overcome Cross-Reactivity of Novel Androgen Receptor Inhibitors” (Cells, 2022).

Columns and labels:
[1] = target: T1, wild-type AR (Homo sapiens, UniProt P10275); experiment: Luciferase reporter assay, PC3 cells transfected with wild-type AR; type: cell-based; conditions: in the presence of R1881
T1 construct: Full-length human wild type AR was cloned into pcDNA3.1 expression plasmid; expressed in transfected cells; host or cells: PC3
T1 sequence (P10275 1-920): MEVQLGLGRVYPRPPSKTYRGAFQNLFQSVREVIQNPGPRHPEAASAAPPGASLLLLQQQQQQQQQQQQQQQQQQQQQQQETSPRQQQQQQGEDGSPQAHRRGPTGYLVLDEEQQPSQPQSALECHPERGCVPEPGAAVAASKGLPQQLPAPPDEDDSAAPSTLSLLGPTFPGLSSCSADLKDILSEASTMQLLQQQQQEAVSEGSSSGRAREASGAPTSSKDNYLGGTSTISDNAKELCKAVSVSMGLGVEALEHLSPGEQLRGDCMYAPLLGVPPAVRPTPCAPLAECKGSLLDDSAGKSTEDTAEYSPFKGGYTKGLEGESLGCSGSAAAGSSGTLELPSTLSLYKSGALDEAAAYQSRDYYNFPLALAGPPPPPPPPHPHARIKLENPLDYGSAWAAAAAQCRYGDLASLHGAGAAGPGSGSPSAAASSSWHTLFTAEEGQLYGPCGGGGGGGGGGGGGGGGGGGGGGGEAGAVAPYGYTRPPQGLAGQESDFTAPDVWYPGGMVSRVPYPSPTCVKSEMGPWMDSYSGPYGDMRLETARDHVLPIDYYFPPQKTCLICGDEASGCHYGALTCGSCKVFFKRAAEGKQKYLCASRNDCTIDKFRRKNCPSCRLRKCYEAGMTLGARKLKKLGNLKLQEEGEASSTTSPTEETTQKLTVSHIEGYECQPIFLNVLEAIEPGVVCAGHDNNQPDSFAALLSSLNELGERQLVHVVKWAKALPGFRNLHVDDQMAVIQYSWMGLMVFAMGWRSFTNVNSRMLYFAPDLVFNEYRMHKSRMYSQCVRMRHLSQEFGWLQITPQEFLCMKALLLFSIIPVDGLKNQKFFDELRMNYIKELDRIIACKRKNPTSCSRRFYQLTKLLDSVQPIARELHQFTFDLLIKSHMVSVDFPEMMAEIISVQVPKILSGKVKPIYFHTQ
Description: Full-length human wild type AR was cloned into pcDNA3.1 expression plasmid (Invitrogen, Waltham, MA, USA) with a CMV promoter. The T878A mutant (T878A-AR) was generated with the Quikchange Mutagenesis Kit (Stratagene, San Diego, CA, USA) using hARWT plasmid as a template. Androgen-starved PC3 cells were seeded in 96-well plates (3000 cells/well) in RPMI 1640 + 5% CSS for 24 h followed by transfection with 50 ng of hARWT or hART878A along with 50 ng of ARR3tk-luciferase reporter construct (100 ng total plasmid DNA) and 0.3 µL/well TransIT20/20 transfection reagent (TT2020, Mirus, Madison, Wisconsin, WI, USA) for 48 h. Cells were treated with increasing amounts of test compound (0.1% final DMSO concentration) and 0.1 nM R1881 for 24 h. Cell lysis was carried out with 60 µL 1X passive lysis buffer/well (Promega, Madison, Wisconsin, WI, USA). The luminescence from 20 µL of cell lysate and 50 µL of Luciferase assay reagent (Promega, Madison, Wisconsin, WI, USA) was recorded on a TECAN M200pro plate reader.

[2] = target: T2, T878A AR LBD (Homo sapiens, UniProt P10275, T878A); experiment: Biolayer interferometry (BLI), T878A LBD; type: binding
T2 construct: made in house; host or cells: E. coli BL21-DE3 co-transformed with pBirACm
T2 sequence (P10275 669-900 T878A limits assumed): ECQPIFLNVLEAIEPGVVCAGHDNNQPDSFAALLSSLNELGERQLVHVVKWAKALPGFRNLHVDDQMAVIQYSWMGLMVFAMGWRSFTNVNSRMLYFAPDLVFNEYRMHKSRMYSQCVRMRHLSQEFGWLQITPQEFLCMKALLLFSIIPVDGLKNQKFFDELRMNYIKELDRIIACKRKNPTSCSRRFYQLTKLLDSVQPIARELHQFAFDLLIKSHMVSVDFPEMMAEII
Description: The direct reversible interaction between small molecules and the AR was quantified by BLI using OctetRED (ForteBio, Fremont, CA, USA). The wild type and T878A-LDB in fusion with an N-terminal (His)6-avidin ([…]) tag were expressed in E. coli BL21-DE3 cells co-transformed with pBirACm plasmid (Avidity), which expresses a biotin ligase leading to the biotynilation of the avidin tag on the LBD. Cells were grown in LB media at 37 °C to an OD600nm = 0.5 and then induced with 0.5 mM isopropyl-β-D-thiogalactoside. A measure of 20 µM of dihydrotestosterone (DHT) and 0.15 mM biotin were added and the cells were incubated at 16 °C for 18 to 20 h. Cells were then resuspended and lysed in buffer containing 500 mM Li2SO4, 50mM HEPES pH7.2, 10% Glycerol, 0.1% Octyl-beta-Glucoside, 20 µM of DHT, 5 mM β-mercaptoethanol, 10 mM imidazole and 0.1 mM phenylmethanesulfonyl fluoride. […] After an overnight dialysis against 150 mM Li2SO4, 50 mM HEPES pH7.2, 10% Glycerol, 0.1% Octyl-beta-Glucoside, 20 µM of DHT and 0.2 mM tris(2-carboxyethyl)phosphine, purified proteins at 50 µg/mL were bound to the super-streptavidin sensors overnight at 4 °C. The assay was performed at 20 °C in the dialysis buffer supplemented with 5% dimethyl sulfoxide (DMSO) which was also used as our reference measurement.

COc1c(F)cccc1-c1csc(N2CCOCC2)n1 [VPC14368, 4-(4-(3-fluoro-2-methoxyphenyl)thiazol-2-yl)morpholine]
AR transcription, wild-type AR [1]: inhibited by VPC14368 in a dose-dependent manner
Direct binding to T878A LBD by BLI [2]: confirmed at high concentrations and in a concentration-dependent manner
Concentration at which binding is seen (BLI) ([2]; Figure 2, 50-300 µM tested): above 100 µM
